Laboratory results reported in patent US20200165608A1, “INHIBITION OF VASCULAR ENDOTHELIAL CELL-MEDIATED PHAGOCYTIC PROCESSES FOR TREATMENT OF DEMYELINATING CONDITIONS” (FLORIDA STATE UNIVERSITY RESEARCH FOUNDATION, INC., priority 2018, published 2020).

How the values were obtained:
[1] = test system: BMECs; assay: In vitro endothelial-to-mesenchymal transition (endoMT) assays; assay type: cell-based, mouse; settings: TGF-β1 10 ng/ml
Description: In vitro endothelial-to-mesenchymal transition (endoMT) assays. 5×10^3 BMECs were seeded in 24-well plate for endoMT induction. As positive control, recombinant TGF-β1 protein ([…]) was added to BMECs for 72 hr to induce in vitro endoMT. Cells were considered spindle-shaped when the diameter at their longest axis to be 1.5-fold greater than the average diameter of untreated cobblestone BMECs. Myelin debris (1 mg/ml) was added to BMECs for 1, 3, 5, 7, and 10 days and culture medium was changed every 3 days, followed by morphological observation of spindle-shape cells. α-SMA staining was used to confirm the mesenchymal transition. Percentage of spindle-shaped cells and percentage of a-SMA^+/CD31^+ were quantified. To examine the role of TGF-β in myelin-induced endoMT, pan TGF-β neutralizing antibody (20 μg/ml) was added to BMECs together with myelin debris for 10 days and re-supplemented every 3 days.

[2] = test system: myelin-ECs (BMECs); assay: Myelin degradation into neutral lipids (Oil Red O staining) in myelin-BMECs after autophagy drug treatment; assay type: cell-based, mouse; settings: 3-MA 2 mM 48 hr (1 mM elsewhere in the source), chloroquine 10 μM 24 hr, rapamycin 1 μM 24 hr
Description: Oil Red O (ORO) staining. ORO staining was performed to detect intracellular neutral lipid accumulation in injured spinal cords and cultured BMECs. Spinal frozen sections or fixed cells were dehydrated in 100% propylene glycol for 5 min, then stained with 0.5% ORO solution at 60° C. for 8 min. The samples were then processed with 85% propylene glycol for 5 min followed by distilled water rinsing for 3 times. Stained samples were imaged with a confocal laser scanning microscope. Starvation and drug treatments for autophagy assays. BMECs cultured with 5% FBS containing medium were used as negative control for autophagy. The positive control for autophagy induction, BMECs, were starved with Hanks Balanced Salt Solution for 6 hr to induce autophagy. 10 μM chloroquine, an inhibitor of lysosomes, or 1 μM of rapamycin, an inducer of autophagy, was added to BMECs cultures for 24 hr after myelin debris treatment. 2 mM of 3-MA, a PI3K inhibitor of autophagy was cultured with ECs for 48 hr, starting from the last 24 hr treatment of myelin debris to the subsequent 24 hr of medium wash. Cells grown on coverslips were fixed and stained with Oil Red 0 for detection of myelin-derived lipids as above described.

[3] = test system: BMECs; settings: 1 mM 3-MA (48 hr), 10 μM chloroquine (24 hr)
Description: Propidium iodide (PI) staining assay for cell death analysis. Wild-type BMECs or Atg5 knockout BMECs were cultured with DMEM medium containing 5% FBS in 24-well plate. To test the toxicity of different autophagy-related drugs, BMECs were treated with or without myelin debris and were treated with or without 1 mM 3-MA (48 hr), 10 μM chloroquine (24 hr), or 1 μM rapamycin (24 hr). After reaching 70% confluence, cells were washed with 1×PBS and fixed with 4% PFA. The fixed cells were stained with propidium iodide and Hoechst, followed by imaging and quantification of PI positive nucleus using Nikon Element software.

[4] = q-PCR, immunostaining and western blot

Molecule	BMEC morphology (induction of endoMT) ([1]; 3 days)	CD31 expression in BMECs [1, 4]	a-SMA expression in BMECs [1, 4]	myelin degradation into neutral lipids (ORO+ lipids) in myelin-ECs [2]	cell toxicity (cell death by PI staining) [3]
TGF-β1: Recombinant mouse TGF-β1 (#5231), positive control, strong inducer of endoMT	elongated and exhibited the same spindle-like morphology as fibroblasts	markedly downregulated CD31 expression	strongly induced a-SMA expression		
Cn1cnc(N)c2ncnc1-2 [3-MA, 3-methyladenine]				significantly inhibited myelin degradation into neutral lipids	
CCN(CC)CCCC(C)Nc1ccnc2cc(Cl)ccc12 (stereo not drawn) [chloroquine]				significantly inhibited myelin degradation into neutral lipids	without causing apparent cell toxicity
